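The compound was tested at five concentrations on cells cultured in 96-well plates, with a 48-hour exposure period. Here, GI50 denotes the concentration required for 50% inhibition of growth.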 Activity calls are given as the source filed them. Cut-off read from the data, not from the text of the source: active = GI50 up to about 1.1 µM and inactive = higher.
Tests used:
Test in all cases: inhibition of tumour cell growth, NCI panel, 48 h
OVCAR-4 = system: OVCAR-4
T47D = system: T47D
OVCAR-3 = system: OVCAR-3
MDA-N = system: MDA-N
SK-MEL-5 = system: SK-MEL-5
SK-MEL-28 = system: SK-MEL-28
U-251 = system: U-251
SW-620 = system: SW-620
MOLT-4 = system: MOLT-4
M14 = system: M14
K562 = system: K562
CCRF-CEM = system: CCRF-CEM
SNB-75 = system: SNB-75
HOP-92 = system: HOP-92
SN12C = system: SN12C
IGROV-1 = system: IGROV-1
EKVX = system: EKVX
UACC-257 = system: UACC-257
SF-268 = system: SF-268
SF-539 = system: SF-539
HT-29 = system: HT-29
SR = system: SR
BT-549 = system: BT-549
HCT-15 = system: HCT-15
A549 = system: A549
COLO 205 = system: COLO 205
UACC-62 = system: UACC-62
SF-295 = system: SF-295
SK-OV-3 = system: SK-OV-3
HCT-116 = system: HCT-116
MDA-MB-231 = system: MDA-MB-231
HOP-62 = system: HOP-62
UO-31 = system: UO-31
OVCAR-5 = system: OVCAR-5
PC-3 = system: PC-3
NCI-H522 = system: NCI-H522
NCI-H23 = system: NCI-H23
HCC 2998 = system: HCC 2998
OVCAR-8 = system: OVCAR-8
HL-60 = system: HL-60
NCI-H460 = system: NCI-H460
MCF7 = system: MCF7
TK-10 = system: TK-10
SNB-19 = system: SNB-19
LOX IMVI = system: LOX IMVI
DU-145 = system: DU-145
MDA-MB-435 = system: MDA-MB-435
786-0 = system: 786-0
KM12 = system: KM12
RXF 393 = system: RXF 393
ACHN = system: ACHN
SK-MEL-2 = system: SK-MEL-2
NCI/ADR-RES = system: NCI/ADR-RES
Malme-3M = system: Malme-3M
RPMI-8226 = system: RPMI-8226
A498 = system: A498
CAKI-1 = system: CAKI-1
NCI-H226 = system: NCI-H226

CC1CCC2CC1NC(=O)CCOCCC(=O)NC2(C)C (stereo not given) was tested, and the GI50 (OVCAR-4) was > 100 µM (inactive), the GI50 (T47D) was > 100 µM (inactive) and the GI50 (OVCAR-3) was > 100 µM (inactive). The GI50 (MDA-N) was > 100 µM (inactive), the GI50 (SK-MEL-5) was > 100 µM (inactive) and the GI50 (SK-MEL-28) was > 100 µM (inactive). The GI50 (U-251) was > 100 µM (inactive), the GI50 (SW-620) was > 100 µM (inactive) and the GI50 (MOLT-4) was > 100 µM (inactive). The GI50 (M14) was > 100 µM (inactive), the GI50 (K562) was > 100 µM (inactive) and the GI50 (CCRF-CEM) was > 100 µM (inactive). For the same compound, the GI50 (SNB-75) was > 100 µM (inactive), the GI50 (HOP-92) was > 100 µM (inactive) and the GI50 (SN12C) was > 100 µM (inactive). For the same compound, the GI50 (IGROV-1) was > 100 µM (inactive), the GI50 (EKVX) was > 100 µM (inactive) and the GI50 (UACC-257) was > 100 µM (inactive). For the same compound, the GI50 (SF-268) was > 100 µM (inactive), the GI50 (SF-539) was > 100 µM (inactive) and the GI50 (HT-29) was > 100 µM (inactive). The GI50 (SR) was > 100 µM (inactive), the GI50 (BT-549) was > 100 µM (inactive) and the GI50 (HCT-15) was > 100 µM. For the same compound, the GI50 (A549) was > 100 µM (inactive), the GI50 (COLO 205) was > 100 µM (inactive) and the GI50 (UACC-62) was > 100 µM (inactive). For the same compound, the GI50 (SF-295) was > 100 µM (inactive), the GI50 (SK-OV-3) was > 100 µM (inactive) and the GI50 (HCT-116) was > 100 µM (inactive). The GI50 (MDA-MB-231) was > 100 µM (inactive), the GI50 (HOP-62) was > 100 µM (inactive) and the GI50 (UO-31) was > 100 µM (inactive). For the same compound, the GI50 (OVCAR-5) was > 100 µM (inactive), the GI50 (PC-3) was > 100 µM (inactive) and the GI50 (NCI-H522) was > 100 µM (inactive). The GI50 (NCI-H23) was > 100 µM (inactive), the GI50 (HCC 2998) was > 100 µM (inactive) and the GI50 (OVCAR-8) was > 100 µM (inactive). The GI50 (HL-60) was > 100 µM (inactive), the GI50 (NCI-H460) was > 100 µM (inactive) and the GI50 (MCF7) was > 100 µM (inactive). The GI50 (TK-10) was > 100 µM (inactive), the GI50 (SNB-19) was > 100 µM (inactive) and the GI50 (LOX IMVI) was > 100 µM (inactive). For the same compound, the GI50 (DU-145) was > 100 µM (inactive), the GI50 (MDA-MB-435) was > 100 µM (inactive) and the GI50 (786-0) was > 100 µM (inactive). For the same compound, the GI50 (KM12) was > 100 µM (inactive).

Cc1cc2[nH]c3c(C#N)c(-c4ccccc4)c(/N=N/c4cccc(C(F)(F)F)c4)c(=O)n3c2cc1C was tested, and the GI50 (OVCAR-4) was 39.5 µM (inactive), the GI50 (T47D) was 20.3 µM (inactive) and the GI50 (OVCAR-3) was 8.55 µM (inactive). For the same compound, the GI50 (MDA-N) was 28.3 µM (inactive), the GI50 (SK-MEL-5) was 15.7 µM (inactive) and the GI50 (SK-MEL-28) was 39 µM (inactive). For the same compound, the GI50 (U-251) was 39.3 µM (inactive), the GI50 (SW-620) was 35.8 µM (inactive) and the GI50 (M14) was 34.4 µM (inactive). For the same compound, the GI50 (RXF 393) was 54.5 µM (inactive), the GI50 (K562) was 0.0382 µM (active) and the GI50 (CCRF-CEM) was 5.3 µM (inactive). For the same compound, the GI50 (SNB-75) was > 100 µM (inactive), the GI50 (ACHN) was 37.5 µM (inactive) and the GI50 (SK-MEL-2) was 58.1 µM (inactive). For the same compound, the GI50 (SN12C) was 27.9 µM (inactive), the GI50 (IGROV-1) was 21.8 µM (inactive) and the GI50 (EKVX) was 23.4 µM (inactive). The GI50 (NCI/ADR-RES) was 34.3 µM (inactive), the GI50 (UACC-257) was 26.8 µM (inactive) and the GI50 (SF-268) was 32.6 µM (inactive). The GI50 (SF-539) was 97.5 µM (inactive), the GI50 (Malme-3M) was 42.9 µM (inactive) and the GI50 (RPMI-8226) was 5.35 µM (inactive). For the same compound, the GI50 (BT-549) was 44.2 µM (inactive), the GI50 (HCT-15) was 37 µM and the GI50 (A549) was 25.3 µM (inactive). For the same compound, the GI50 (COLO 205) was 42.2 µM (inactive), the GI50 (SF-295) was 42.6 µM (inactive) and the GI50 (SK-OV-3) was 32.4 µM (inactive). The GI50 (HCT-116) was 13.7 µM (inactive), the GI50 (A498) was 88.5 µM (inactive) and the GI50 (CAKI-1) was 32 µM (inactive). For the same compound, the GI50 (MDA-MB-231) was 85.5 µM (inactive), the GI50 (HOP-62) was > 100 µM (inactive) and the GI50 (NCI-H226) was 25.2 µM (inactive). For the same compound, the GI50 (UO-31) was 31.3 µM (inactive), the GI50 (OVCAR-5) was > 100 µM (inactive) and the GI50 (PC-3) was 32.2 µM (inactive). The GI50 (NCI-H522) was 16 µM (inactive), the GI50 (NCI-H23) was 14.6 µM (inactive) and the GI50 (HCC 2998) was 59.2 µM (inactive). The GI50 (OVCAR-8) was 26.1 µM (inactive), the GI50 (NCI-H460) was 21.4 µM (inactive) and the GI50 (MCF7) was 50.4 µM (inactive). For the same compound, the GI50 (TK-10) was 50.4 µM (inactive), the GI50 (SNB-19) was 35.2 µM (inactive) and the GI50 (LOX IMVI) was 49.1 µM (inactive). The GI50 (MDA-MB-435) was 38.8 µM (inactive), the GI50 (786-0) was 35.8 µM (inactive) and the GI50 (KM12) was 31.6 µM (inactive).

— ChEMBL document CHEMBL1201862, “PubChem BioAssay data set” (2004)
